Test results as given in patent publication US20100267561A1, “HERBICIDAL PYRIDAZINONE DERIVATIVES” (priority 2007, published 2010).

Assays:
Assay in all cases: Test B pre-/postemergence plant response
Type in all cases: in vivo
[1] = tested on: catchweed bedstraw (Galium aparine); conditions: Preemergence; for Galium plant response rating: scale 0 to 100
In short: (§1)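 Seeds were sown and sprayed preemergence, while plants at 2 to 18 cm (1- to 4-leaf stage) got postemergence sprays. Compounds were formulated in a non-phytotoxic solvent mixture with surfactant. After 13 to 15 days in a greenhouse, injury was rated visually against untreated controls, 0 (no effect) to 100 (complete control).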

[2] = tested on: common ragweed (Ambrosia elation)
In short: as §1

[3] = tested on: green foxtail (Setaria viridis)
In short: as §1

[4] = tested on: pigweed (Amaranthus retroflexus)
In short: as §1

[5] = tested on: woolly cupgrass (Eriochloa villosa)
In short: as §1

[6] = tested on: cocklebur (Xanthium strumarium)
In short: as §1

[7] = tested on: yellow nutsedge (Cyperus esculentus)
In short: as §1

[8] = tested on: lambsquarters (Chenopodium album)
In short: as §1

wild oat (Avena fatua) = tested on: wild oat (Avena fatua)
In short: as §1

[9] = tested on: large crabgrass (Digitaria sanguinalis)
In short: as §1

[10] = tested on: blackgrass (Alopecurus myosuroides)
In short: as §1

corn (Zea mays) = tested on: corn (Zea mays)
In short: as §1

[11] = tested on: velvetleaf (Abutilon theophrasti)
In short: as §1

kochia (Kochia scoparia) = conditions: for Kochia plant response rating: postemergence, 0-100 scale; for Plant response rating, Kochia: Postemergence
In short: as §1

[12] = 8 g ai/ha, postemergence, 0-100 scale
[13] = 16 g ai/ha, postemergence, 0-100 scale
[14] = Postemergence, 31 g ai/ha, scale 0 to 100
[15] = Postemergence, 62 g ai/ha, scale 0 to 100, 0 no effect, 100 complete control
[16] = Preemergence, 31 g ai/ha, scale 0 to 100 (0 no effect, 100 complete control)
[17] = Preemergence, 62 g ai/ha, 0 to 100 scale, 0 no effect, 100 complete control
[18] = Preemergence, 8 g ai/ha, scale 0 to 100
[19] = Preemergence, 16 g ai/ha, scale 0 to 100
[20] = Postemergence, 16 g ai/ha, scale 0 to 100

CCCc1cc(-c2ccc(Cl)cc2)nn1-c1c(O)cnn(C)c1=O [Compound 76]
Plant response rating, Galium ([1]; 31 g ai/ha, scale 0 to 100 (0 no effect, 100 complete control)): 0 | Plant response rating, Galium ([1]; 62 g ai/ha, 0 to 100 scale, 0 no effect, 100 complete control): 0 | Galium plant response rating ([1]; 8 g ai/ha): 0 | Galium plant response rating ([1]; 16 g ai/ha): 0 | Ragweed plant response rating [2, 12]: 0 | Ragweed plant response rating [2, 13]: 0 | Plant response rating, Ragweed [2, 14]: 0 | Plant response rating, Ragweed [2, 15]: 0 | Plant response rating, Ragweed [2, 16]: 0 | Plant response rating, Ragweed [2, 17]: 0 | Ragweed plant response rating [2, 18]: 0 | Ragweed plant response rating [2, 19]: 0 | Foxtail, Green plant response rating [3, 12]: 65 | Plant response rating, Foxtail, Green [3, 20]: 85 | Plant response rating, Foxtail, Green [3, 14]: 95 | Plant response rating, Foxtail, Green [3, 15]: 100 | Plant response rating, Foxtail, Green [3, 16]: 90 | Plant response rating, Foxtail, Green [3, 17]: 90 | Foxtail, Green plant response rating [3, 18]: 40 | Foxtail, Green plant response rating [3, 19]: 65 | Pigweed plant response rating [4, 12]: 0 | Pigweed plant response rating [4, 13]: 0 | Plant response rating, Pigweed [4, 14]: 0 | Plant response rating, Pigweed [4, 15]: 0 | Plant response rating, Pigweed [4, 16]: 0 | Plant response rating, Pigweed [4, 17]: 0 | Pigweed plant response rating [4, 18]: 0 | Pigweed plant response rating [4, 19]: 0 | Cupgrass, Woolly plant response rating [5, 12]: 60 | Plant response rating, Cupgrass, Woolly [5, 20]: 65 | Plant response rating, Cupgrass, Woolly [5, 14]: 85 | Plant response rating, Cupgrass, Woolly [5, 15]: 90 | Plant response rating, Cupgrass, Woolly [5, 16]: 90 | Plant response rating, Cupgrass, Woolly [5, 17]: 98 | Cupgrass, Woolly plant response rating [5, 18]: 55 | Cupgrass, Woolly plant response rating [5, 19]: 75 | Cocklebur plant response rating [6, 12]: 0 | Plant response rating, Cocklebur [6, 20]: 0 | Plant response rating, Cocklebur [6, 14]: 0 | Plant response rating, Cocklebur [6, 15]: 0 | Plant response rating, Cocklebur [6, 16]: 0 | Plant response rating, Cocklebur [6, 17]: 0 | Cocklebur plant response rating [6, 18]: 0 | Cocklebur plant response rating [6, 19]: 0 | Nutsedge, Yellow plant response rating [7, 12]: 0 | Nutsedge, Yellow plant response rating [7, 13]: 0 | Plant response rating, Nutsedge, Yellow [7, 14]: 0 | Plant response rating, Nutsedge, Yellow [7, 15]: 0 | Plant response rating, Nutsedge, Yellow [7, 16]: 100 | Plant response rating, Nutsedge, Yellow [7, 17]: 100 | Nutsedge, Yellow plant response rating [7, 18]: 100 | Nutsedge, Yellow plant response rating [7, 19]: 100 | Lambsquarters plant response rating [8, 12]: 0 | Lambsquarters plant response rating [8, 13]: 0 | Plant response rating, Lambsquarters [8, 14]: 0 | Plant response rating, Lambsquarters [8, 15]: 0 | Plant response rating, Lambsquarters [8, 16]: 0 | Plant response rating, Lambsquarters [8, 17]: 0 | Lambsquarters plant response rating [8, 18]: 0 | Lambsquarters plant response rating [8, 19]: 0 | Oat, Wild plant response rating (wild oat (Avena fatua); [12]): 80 | Oat, Wild plant response rating (wild oat (Avena fatua); [13]): 95 | Plant response rating, Oat, Wild (wild oat (Avena fatua); [14]): 100 | Plant response rating, Oat, Wild (wild oat (Avena fatua); [15]): 100 | Plant response rating, Oat, Wild (wild oat (Avena fatua); [16]): 5 | Plant response rating, Oat, Wild (wild oat (Avena fatua); [17]): 80 | Oat, Wild plant response rating (wild oat (Avena fatua); [18]): 0 | Oat, Wild plant response rating (wild oat (Avena fatua); [19]): 0 | Crabgrass, Large plant response rating [9, 12]: 20 | Plant response rating, Crabgrass, Large [9, 20]: 85 | Plant response rating, Crabgrass, Large [9, 14]: 95 | Plant response rating, Crabgrass, Large [9, 15]: 100 | Plant response rating, Crabgrass, Large [9, 16]: 55 | Plant response rating, Crabgrass, Large [9, 17]: 98 | Crabgrass, Large plant response rating [9, 18]: 0 | Crabgrass, Large plant response rating [9, 19]: 20 | Blackgrass plant response rating [10, 12]: 70 | Plant response rating, Blackgrass [10, 20]: 85 | Plant response rating, Blackgrass [10, 14]: 100 | Plant response rating, Blackgrass [10, 15]: 100 | Plant response rating, Blackgrass [10, 16]: 80 | Plant response rating, Blackgrass [10, 17]: 90 | Blackgrass plant response rating [10, 18]: 40 | Blackgrass plant response rating [10, 19]: 40 | Corn plant response rating (corn (Zea mays); [12]): 75 | Plant response rating, Corn (corn (Zea mays); [20]): 85 | Plant response rating, Corn (corn (Zea mays); [14]): 100 | Plant response rating, Corn (corn (Zea mays); [15]): 100 | Plant response rating, Corn (corn (Zea mays); [16]): 75 | Plant response rating, Corn (corn (Zea mays); [17]): 85 | Corn plant response rating (corn (Zea mays); [18]): 0 | Corn plant response rating (corn (Zea mays); [19]): 55 | Velvetleaf plant response rating [11, 12]: 0 | Velvetleaf plant response rating [11, 13]: 0 | Plant response rating, Velvetleaf [11, 14]: 0 | Plant response rating, Velvetleaf [11, 15]: 0 | Plant response rating, Velvetleaf [11, 16]: 0 | Plant response rating, Velvetleaf [11, 17]: 0 | Velvetleaf plant response rating [11, 18]: 0 | Velvetleaf plant response rating [11, 19]: 0 | Kochia plant response rating (kochia (Kochia scoparia); 8 g ai/ha): 0 | Kochia plant response rating (kochia (Kochia scoparia); 16 g ai/ha): 0 | Plant response rating, Kochia (kochia (Kochia scoparia); 31 g ai/ha, scale 0 to 100): 0 | Plant response rating, Kochia (kochia (Kochia scoparia); 62 g ai/ha, scale 0 to 100, 0 no effect, 100 complete control): 0
